The record followed here is ChEMBL document CHEMBL4354789, “Recent advances in the discovery of indoleamine 2,3-dioxygenase 1 (IDO1) inhibitors” (Medchemcomm, 2019).

Bounds are passed on as bounds.

For one series, the system named is Plasmodium falciparum. Kind of series: Antimalarial activity against chloroquine-sensitive Plasmodium falciparum 3D7 infected in erythrocytes assessed as reduction in parasite growth preincubated for 48 hrs followed by addition of [3H]Hypoxanthine and measured after 24 hrs by radiometric method. The series is classed as functional, organism-based.
Series [1] concerns Homo sapiens. Kind of series: In vivo inhibition of IDO1 in human patient assessed as reduction in Serum kynurenine level at 25 to 200 mg, po qd for 2 weeks co-treated with nivo-lumab relative to control. The series is classed as functional.
The test system of series [2] is Homo sapiens. The series can be described thus: In vivo inhibition of IDO1 in human patient assessed as reduction in Serum kynurenine level at 100 to 200 mg, po qd for 2 weeks co-treated with nivo-lumab relative to control. The series is classed as functional.
Series [3] concerns the target T1, Indoleamine 2,3-dioxygenase 1 (Homo sapiens, UniProt P14902). The series can be described thus: Inhibition of IDO1 in HEK293 cells assessed as reduction in L-kynurenine formation incubated for 48 hrs using L-tryptophan as substrate. The series is classed as cell-based.
The target of series [4] is T1, Indoleamine 2,3-dioxygenase 1. Kind of series: Inhibition of recombinant human IDO1 expressed in Escherichia coli assessed as reduction in formation of kynurenine using L-tryptophan as substrate by methylene blue staining based assay.
Series [5] shares this target. Kind of series: Inhibition of IDO1 (unknown origin).
Series [6] has the same target. The series can be described thus: Inhibition of IDO1 in LPS-induced human THP1 cells.
Series [7] shares this target. The series can be described thus: Inhibition of recombinant human N-terminal His-tagged IDO1 expressed in Escherichia coli using L-tryptophan as substrate incubated for 60 mins by HPLC analysis.
Series [8] has the same target. Kind of series: Inhibition of recombinant human IDO1 using L-tryptophan as substrate preincubated for 15 mins followed by substrate addition by methylene blue staining based spectrometric method.
The target is the same in series [9]. The series can be described thus: Inhibition of IDO1 in IFNgamma-indced human HeLa cells incubated for 48 hrs using L-tryptophan as substrate by colorimetric analysis. The series is classed as cell-based.
Another series has as its system A549. The series can be described thus: Cytotoxicity against human A549 cells assessed as growth inhibition after 72 hrs by MTT assay. The series is classed as functional. Particulars: A549, 72 h. Background: Tetrazolium dyes change colour on reduction, which living cells bring about.
The test system of a further series is Jurkat. Kind of series: Cytotoxicity against human Jurkat cells assessed as growth inhibition after 72 hrs by MTT assay. The series is classed as functional.
Series [10] addresses T2, Indoleamine 2,3-dioxygenase 1 (Mus musculus, UniProt P28776). The series can be described thus: Inhibition of mouse IDO1 expressed in Escherichia coli Rosetta (DE3) cells.
Series [11] has as its target T1, Indoleamine 2,3-dioxygenase 1. The series can be described thus: Inhibition of recombinant human IDO1 expressed in Escherichia coli assessed as reduction in formation of kynurenine using L-tryptophan as substrate measured after 30 mins.
The target is the same in series [12]. Kind of series: Inhibition of human IDO1 expressed in COS1 cells assessed as reduction in N-formyl-kynurenine level incubated for 16 hrs. The series is classed as cell-based.
In series [13] the target is T2, Indoleamine 2,3-dioxygenase 1. Kind of series: Inhibition of mouse IDO1 expressed in COS1 cells assessed as reduction in N-formyl-kynurenine level incubated for 16 hrs. The series is classed as cell-based.
The target of series [14] is T1, Indoleamine 2,3-dioxygenase 1. The series can be described thus: Inhibition of recombinant human His6-tagged IDO1 expressed in Escherichia coli BL21DE3pLysS cells assessed as reduction in N-formyl-kynurenine level using L-tryptophan as substrate incubated for 60 mins.
Series [15] shares this target. Kind of series: Inhibition of recombinant human His6-tagged IDO1 using L-tryptophan as substrate preincubated for 10 mins and measured after 30 mins.
Series [16] in a line: Half life in human cancer patient at 2000 mg bid for 28 days by LC-MS method. Conditions: in vivo. The series is classed as ADME.
Series [17] can be described thus: Tmax in human cancer patient at 2000 mg bid for 28 days by LC-MS method. The series is classed as ADME. Particulars: in vivo.
The nature of series [18]: Antitumour activity in mouse B16 cells pretreated with compound followed by tumour implantation assessed as reduction in tumour size after 4 days relative to control. Also on record: scale not given: the % may be the effect or the level left.
Series [19] has as its target T1, Indoleamine 2,3-dioxygenase 1. Kind of series: Inhibition of recombinant human IDO1 expressed in COS1 cells by colorimetric method. The series is classed as cell-based.

T1 sequence (P14902 whole entry): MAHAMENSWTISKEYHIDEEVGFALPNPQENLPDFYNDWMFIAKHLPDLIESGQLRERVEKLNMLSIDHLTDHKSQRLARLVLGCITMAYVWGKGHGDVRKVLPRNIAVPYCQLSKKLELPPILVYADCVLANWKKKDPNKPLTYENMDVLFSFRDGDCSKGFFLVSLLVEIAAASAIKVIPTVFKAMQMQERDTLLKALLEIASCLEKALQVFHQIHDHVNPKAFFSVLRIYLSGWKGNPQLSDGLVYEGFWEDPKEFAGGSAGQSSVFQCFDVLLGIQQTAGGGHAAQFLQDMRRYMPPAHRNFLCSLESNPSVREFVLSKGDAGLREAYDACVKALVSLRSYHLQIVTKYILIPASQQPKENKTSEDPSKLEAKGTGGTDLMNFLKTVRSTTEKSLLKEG
T2 sequence (P28776 whole entry): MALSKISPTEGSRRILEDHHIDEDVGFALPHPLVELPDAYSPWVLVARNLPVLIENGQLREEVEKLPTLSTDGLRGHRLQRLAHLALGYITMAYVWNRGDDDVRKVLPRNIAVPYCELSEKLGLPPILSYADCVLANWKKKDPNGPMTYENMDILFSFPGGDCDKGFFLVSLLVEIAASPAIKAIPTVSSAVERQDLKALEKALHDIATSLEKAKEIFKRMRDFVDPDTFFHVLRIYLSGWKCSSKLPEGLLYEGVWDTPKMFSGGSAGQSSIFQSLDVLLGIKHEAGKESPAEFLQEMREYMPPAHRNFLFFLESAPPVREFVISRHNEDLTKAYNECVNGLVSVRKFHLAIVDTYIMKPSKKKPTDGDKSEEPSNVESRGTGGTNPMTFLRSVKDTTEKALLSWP

For `NOCc1cccc(Cl)c1`, the IC50 (in general, the point on the concentration scale where inhibition reaches its midpoint) in the series on Plasmodium falciparum came out at 0.109 µM.
For `C[C@@H](C(=O)Nc1ccc(Cl)cc1)[C@H]1CC[C@@H](c2ccnc3ccc(F)cc32)CC1`, the “inhibition (INH)” value is listed as over 45% with Homo sapiens [1] and over 60% in the series with Homo sapiens [2].
Regarding `Clc1ccc(Nc2cn[nH]n2)cc1`, the IC50 in [3] was 0.067 µM.
Consider `C[C@@]12CC[C@H](O)CC1=C(O)C(=O)c1cc3c(cc12)C(=O)C1=C(C3=O)S(=O)(=O)CCN1`, for which, in [4], the half-inhibitory concentration (IC50) is 4 µM.
`COc1cc(OC(=O)c2c(C)c(O)c(OC(=O)c3c(C)cc(O)c(C)c3O)c(C)c2OC)c(C)c(C)c1C(=O)O` gave a half-inhibitory concentration (IC50) in series [5] of 14.5 µM.
With `CC1(C)CCC[C@]2(C)[C@H]3CCC(C=O)C[C@H](O)[C@]3(C=O)CC[C@@H]12` (some centres not stated), the IC50 in series [6] amounted to 0.045 µM; in series [7], 7.7 µM.
As for `CCOc1cc(C(=O)NC(=S)Nc2c(O)ccc3ccccc23)cc(OCC)c1OCC`, the IC50 in series [8] and in series [9] was 18 µM in each case.
Consider `Nc1ccc2cc3cccc[n+]3cc2c1`, for which the figures for the concentration for 50% growth inhibition (GI50) in the series on A549 and in the series with Jurkat were 86 µM and 62 µM, respectively. It took 0.164 µM to reach half-maximal inhibition in [10] (IC50).
Turning to `COC1=CC(=O)c2c(oc(C)c2CO)C1=O`, the half-inhibitory concentration (IC50) in series [11] was determined as 0.24 µM.
For `CSC(=S)NCc1c[nH]c2ccc(Br)cc12`, the EC50 (as a rule, the midpoint of the concentration-response curve) worked out at 24 µM in series [12] and 26.1 µM in [13]. Moreover, in [14], the Ki (usually a dissociation constant, usually derived from enzyme kinetics or from competition with a known ligand) came out at 24.5 µM.
For the molecule `COc1nsc2c1C(=O)c1c(O)cccc1C2=O`, in series [15], the IC50 is 0.0803 µM.
Take `Cn1cc(C[C@H](N)C(=O)O)c2ccccc21` (racemic) [(L)-1-METHYLTRYPTOPHAN]: the half-life (commonly the time needed for the level to fall by half in the phase considered) in series [16] was 10.5 h. Besides, the Tmax (commonly the time at which the peak concentration occurs) in [17] came to 2.9 h.
Regarding `O[C@H](C[C@H]1c2c(F)cccc2-c2cncn21)[C@H]1CC[C@H](O)CC1` [NAVOXIMOD], the Activity in series [18] worked out at 95%.
Regarding `CN1C(=O)C(Cc2c[nH]c3ccccc23)NC1=S` (configuration not stated) [NECROSTATIN], the EC50 in series [19] came out at 12.8 µM.
